# Reference: patent US20020111274A1, “1-alkyl-3-[1-(substituted phenyl) benzotriazol-6-yl] uracils” (BASF Aktiengesellschaft, priority 2000, published 2002)
# Legend:
# Parameters in all cases: scale not given here
# [1] = test system: IPOHE Morningglory, Ivyleaf; test: Preemergence herbicidal evaluation, IPOHE; assay type: in vivo, Ipomoea hederacea, (L.) Jacq.; conditions: preemergence
# Summary of the method: (§1)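 Seeds mixed with potting soil were planted on about one inch of soil in cups, then sprayed with the test compound in aqueous acetone at roughly 0.013 to 0.800 kg per hectare. Plants were kept under standard greenhouse care and injury was rated four to five weeks after treatment.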
# [2] = test system: GLXMAW Soybean, Williams; test: Preemergence herbicidal evaluation, GLXMAW; assay type: in vivo, Glycine max, (L.) Merr. cv Williams; conditions: preemergence
# Summary of the method: as §1
# [3] = test system: CHEAL Lambsquarters, Common; test: Postemergence herbicidal evaluation, CHEAL; assay type: in vivo, Chenopodium album, L.; conditions: postemergence spray, rated about two-three weeks after treatment
# Summary of the method: (§2)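 Visual injury rating ~2–3 wk post-spray; replicate tests averaged. Two-week-old seedlings; foliar spray at 40 psi; 0.006–0.400 kg ai/ha in 80/20 acetone/water + 1.0% methylated seed oil.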
# [4] = test system: ZEAMX Corn, Field; test: Postemergence herbicidal evaluation, ZEAMX; assay type: in vivo, Zea mays, L. (Sammel-Bezeichnung); conditions: postemergence spray, rated about two-three weeks after treatment
# Summary of the method: as §2
# [5] = test system: SETVI Foxtail, Green; test: Postemergence herbicidal evaluation, SETVI; assay type: in vivo, Setaria viridis, (L.) Beau; conditions: postemergence spray, rated about two-three weeks after treatment
# Summary of the method: as §2
# [6] = test system: ABUTH Velvetleaf; test: Postemergence herbicidal evaluation, ABUTH; assay type: in vivo, Abutilon theophrasti, Medic.; conditions: postemergence spray, rated about two-three weeks after treatment
# Summary of the method: as §2
# [7] = test system: AMBEL Ragweed, Common; test: Preemergence herbicidal evaluation, AMBEL; assay type: in vivo, Ambrosia artemisifolia, L.; conditions: preemergence
# Summary of the method: as §1
# [8] = test system: ECHOG Barnyardgrass; test: Preemergence herbicidal evaluation, ECHOG; assay type: in vivo, Echinochloa crus-galli, (L.) Beau; conditions: preemergence
# Summary of the method: as §1
# [9] = test system: IPOHE Morningglory, Ivyleaf; test: Postemergence herbicidal evaluation, IPOHE; assay type: in vivo, Ipomoea hederacea, (L.) Jacq.; conditions: postemergence spray, rated about two-three weeks after treatment
# Summary of the method: as §2
# [10] = test system: SETVI Foxtail, Green; test: Preemergence herbicidal evaluation, SETVI; assay type: in vivo, Setaria viridis, (L.) Beau; conditions: preemergence
# Summary of the method: as §1
# [11] = test system: TRZAWR Wheat, Winter, cv Riband; test: Postemergence herbicidal evaluation, TRZAWR; assay type: in vivo, Triticum aestivum; conditions: postemergence spray, rated about two-three weeks after treatment
# Summary of the method: as §2
# [12] = test system: GALAP Galium; test: Preemergence herbicidal evaluation, GALAP; assay type: in vivo, Galium aparine; conditions: preemergence
# Summary of the method: as §1
# [13] = test system: ZEAMX Corn, Field; test: Preemergence herbicidal evaluation, ZEAMX; assay type: in vivo, Zea mays, L. (Sammel-Bezeichnung); conditions: preemergence
# Summary of the method: as §1
# [14] = test system: CASOB Sicklepod; test: Postemergence herbicidal evaluation, CASOB; assay type: in vivo, Cassia obtusifolia, L.; conditions: postemergence spray, rated about two-three weeks after treatment
# Summary of the method: as §2
# [15] = test system: GALAP Galium; test: Postemergence herbicidal evaluation, GALAP; assay type: in vivo, Galium aparine; conditions: postemergence spray, rated about two-three weeks after treatment
# Summary of the method: as §2
# [16] = test system: CHEAL Lambsquarters, Common; test: Preemergence herbicidal evaluation, CHEAL; assay type: in vivo, Chenopodium album, L.; conditions: preemergence
# Summary of the method: as §1
# [17] = test system: AMBEL Ragweed, Common; test: Postemergence herbicidal evaluation, AMBEL; assay type: in vivo, Ambrosia artemisifolia, L.; conditions: postemergence spray, rated about two-three weeks after treatment
# Summary of the method: as §2
# [18] = test system: ECHOG Barnyardgrass; test: Postemergence herbicidal evaluation, ECHOG; assay type: in vivo, Echinochloa crus-galli, (L.) Beau; conditions: postemergence spray, rated about two-three weeks after treatment
# Summary of the method: as §2
# [19] = test system: TRZAWR Wheat, Winter, cv Riband; test: Preemergence herbicidal evaluation, TRZAWR; assay type: in vivo, Triticum aestivum; conditions: preemergence
# Summary of the method: as §1
# [20] = test system: CASOB Sicklepod; test: Preemergence herbicidal evaluation, CASOB; assay type: in vivo, Cassia obtusifolia, L.; conditions: preemergence
# Summary of the method: as §1
# [21] = test system: ORYSAT Rice, Tebonnet; test: Postemergence herbicidal evaluation, ORYSAT; assay type: in vivo, Oryza sativa, (L.); conditions: postemergence spray, rated about two-three weeks after treatment
# Summary of the method: as §2
# [22] = test system: ORYSAT Rice, Tebonnet; test: Preemergence herbicidal evaluation, ORYSAT; assay type: in vivo, Oryza sativa, (L.); conditions: preemergence
# Summary of the method: as §1
# [23] = test system: ABUTH Velvetleaf; test: Preemergence herbicidal evaluation, ABUTH; assay type: in vivo, Abutilon theophrasti, Medic.; conditions: preemergence
# Summary of the method: as §1
# [24] = test system: GLXMAW Soybean, Williams; test: Postemergence herbicidal evaluation, GLXMAW; assay type: in vivo, Glycine max, (L.) Merr. cv Williams; conditions: postemergence spray, rated about two-three weeks after treatment
# Summary of the method: as §2
compound,measurement,setting,value
Cc1ccc(-n2nnc3cc(F)c(-n4c(=O)cc(C(F)(F)F)n(C)c4=O)cc32)cc1C [Example 23],IPOHE herbicidal rating,[1]; rate 0.016 kg/ha,0.0
same,IPOHE herbicidal rating,[1]; rate 0.032 kg/ha,0.0
same,IPOHE herbicidal rating,[1]; rate 0.062 kg/ha,0.0
same,IPOHE herbicidal rating,[1]; rate 0.125 kg/ha,1.0
same,GLXMAW herbicidal rating,[2]; rate 0.016 kg/ha,0.0
same,GLXMAW herbicidal rating,[2]; rate 0.032 kg/ha,0.0
same,GLXMAW herbicidal rating,[2]; rate 0.062 kg/ha,0.0
same,GLXMAW herbicidal rating,[2]; rate 0.125 kg/ha,0.0
same,Postemergence herbicidal rating CHEAL,[3]; 0.008 kg/ha,3.0
same,Postemergence herbicidal rating CHEAL,[3]; 0.032 kg/ha,4.0
same,Postemergence herbicidal rating CHEAL,[3]; 0.062 kg/ha,9.0
same,Postemergence herbicidal rating ZEAMX,[4]; 0.008 kg/ha,5.5
same,Postemergence herbicidal rating ZEAMX,[4]; 0.016 kg/ha,7.0
same,Postemergence herbicidal rating ZEAMX,[4]; 0.032 kg/ha,8.0
same,Postemergence herbicidal rating ZEAMX,[4]; 0.062 kg/ha,8.5
same,Postemergence herbicidal rating SETVI,[5]; 0.008 kg/ha,7.0
same,Postemergence herbicidal rating SETVI,[5]; 0.016 kg/ha,9.0
same,Postemergence herbicidal rating SETVI,[5]; 0.032 kg/ha,9.0
same,Postemergence herbicidal rating SETVI,[5]; 0.062 kg/ha,9.0
same,Postemergence herbicidal rating ABUTH,[6]; 0.008 kg/ha,9.0
same,Postemergence herbicidal rating ABUTH,[6]; 0.016 kg/ha,9.0
same,Postemergence herbicidal rating ABUTH,[6]; 0.032 kg/ha,9.0
same,Postemergence herbicidal rating ABUTH,[6]; 0.062 kg/ha,9.0
same,AMBEL herbicidal rating,[7]; rate 0.016 kg/ha,0.0
same,AMBEL herbicidal rating,[7]; rate 0.032 kg/ha,0.0
same,AMBEL herbicidal rating,[7]; rate 0.062 kg/ha,0.0
same,AMBEL herbicidal rating,[7]; rate 0.125 kg/ha,1.0
same,ECHCG herbicidal rating,[8]; rate 0.016 kg/ha,0.0
same,ECHCG herbicidal rating,[8]; rate 0.032 kg/ha,2.0
same,ECHCG herbicidal rating,[8]; rate 0.062 kg/ha,5.0
same,ECHCG herbicidal rating,[8]; rate 0.125 kg/ha,8.0
same,Postemergence herbicidal rating IPOHE,[9]; 0.008 kg/ha,2.0
same,Postemergence herbicidal rating IPOHE,[9]; 0.016 kg/ha,9.0
same,Postemergence herbicidal rating IPOHE,[9]; 0.032 kg/ha,9.0
same,Postemergence herbicidal rating IPOHE,[9]; 0.062 kg/ha,9.0
same,SETVI herbicidal rating,[10]; rate 0.016 kg/ha,3.0
same,SETVI herbicidal rating,[10]; rate 0.032 kg/ha,8.0
same,SETVI herbicidal rating,[10]; rate 0.062 kg/ha,9.0
same,SETVI herbicidal rating,[10]; rate 0.125 kg/ha,9.0
same,Postemergence herbicidal rating TRZAWR,[11]; 0.008 kg/ha,4.0
same,Postemergence herbicidal rating TRZAWR,[11]; 0.016 kg/ha,4.5
same,Postemergence herbicidal rating TRZAWR,[11]; 0.032 kg/ha,5.5
same,Postemergence herbicidal rating TRZAWR,[11]; 0.062 kg/ha,6.5
same,GALAP herbicidal rating,[12]; rate 0.016 kg/ha,0.0
same,GALAP herbicidal rating,[12]; rate 0.032 kg/ha,0.0
same,GALAP herbicidal rating,[12]; rate 0.062 kg/ha,0.0
same,GALAP herbicidal rating,[12]; rate 0.125 kg/ha,0.0
same,ZEAMX herbicidal rating,[13]; rate 0.016 kg/ha,0.0
same,ZEAMX herbicidal rating,[13]; rate 0.032 kg/ha,0.0
same,ZEAMX herbicidal rating,[13]; rate 0.062 kg/ha,0.0
same,ZEAMX herbicidal rating,[13]; rate 0.125 kg/ha,4.0
same,Postemergence herbicidal rating CASOB,[14]; 0.008 kg/ha,0.0
same,Postemergence herbicidal rating CASOB,[14]; 0.016 kg/ha,0.0
same,Postemergence herbicidal rating CASOB,[14]; 0.032 kg/ha,0.0
same,Postemergence herbicidal rating CASOB,[14]; 0.062 kg/ha,3.0
same,Postemergence herbicidal rating GALAP,[15]; 0.008 kg/ha,0.0
same,Postemergence herbicidal rating GALAP,[15]; 0.016 kg/ha,2.0
same,Postemergence herbicidal rating GALAP,[15]; 0.032 kg/ha,2.0
same,Postemergence herbicidal rating GALAP,[15]; 0.062 kg/ha,2.0
same,CHEAL herbicidal rating,[16]; rate 0.016 kg/ha,0.0
same,CHEAL herbicidal rating,[16]; rate 0.032 kg/ha,7.0
same,CHEAL herbicidal rating,[16]; rate 0.062 kg/ha,9.0
same,CHEAL herbicidal rating,[16]; rate 0.125 kg/ha,9.0
same,Postemergence herbicidal rating AMBEL,[17]; 0.008 kg/ha,0.0
same,Postemergence herbicidal rating AMBEL,[17]; 0.016 kg/ha,0.0
same,Postemergence herbicidal rating AMBEL,[17]; 0.032 kg/ha,4.0
same,Postemergence herbicidal rating AMBEL,[17]; 0.062 kg/ha,9.0
same,Postemergence herbicidal rating ECHCG,[18]; 0.008 kg/ha,0.0
same,Postemergence herbicidal rating ECHCG,[18]; 0.016 kg/ha,0.0
same,Postemergence herbicidal rating ECHCG,[18]; 0.032 kg/ha,0.0
same,Postemergence herbicidal rating ECHCG,[18]; 0.062 kg/ha,0.0
same,TRZAWR herbicidal rating,[19]; rate 0.016 kg/ha,0.0
same,TRZAWR herbicidal rating,[19]; rate 0.032 kg/ha,0.0
same,TRZAWR herbicidal rating,[19]; rate 0.062 kg/ha,1.0
same,TRZAWR herbicidal rating,[19]; rate 0.125 kg/ha,3.0
same,CASOB herbicidal rating,[20]; rate 0.016 kg/ha,0.0
same,CASOB herbicidal rating,[20]; rate 0.032 kg/ha,0.0
same,CASOB herbicidal rating,[20]; rate 0.062 kg/ha,0.0
same,CASOB herbicidal rating,[20]; rate 0.125 kg/ha,0.0
same,Postemergence herbicidal rating ORYSAT,[21]; 0.008 kg/ha,2.5
same,Postemergence herbicidal rating ORYSAT,[21]; 0.016 kg/ha,3.0
same,Postemergence herbicidal rating ORYSAT,[21]; 0.032 kg/ha,3.5
same,Postemergence herbicidal rating ORYSAT,[21]; 0.062 kg/ha,4.0
same,ORYSAT herbicidal rating,[22]; rate 0.016 kg/ha,0.0
same,ORYSAT herbicidal rating,[22]; rate 0.032 kg/ha,0.0
same,ORYSAT herbicidal rating,[22]; rate 0.062 kg/ha,0.0
same,ORYSAT herbicidal rating,[22]; rate 0.125 kg/ha,0.0
same,ABUTH herbicidal rating,[23]; rate 0.016 kg/ha,0.0
same,ABUTH herbicidal rating,[23]; rate 0.032 kg/ha,3.0
same,ABUTH herbicidal rating,[23]; rate 0.062 kg/ha,9.0
same,ABUTH herbicidal rating,[23]; rate 0.125 kg/ha,9.0
same,Postemergence herbicidal rating GLXMAW,[24]; 0.008 kg/ha,3.5
same,Postemergence herbicidal rating GLXMAW,[24]; 0.016 kg/ha,4.5
same,Postemergence herbicidal rating GLXMAW,[24]; 0.032 kg/ha,4.5
same,Postemergence herbicidal rating GLXMAW,[24]; 0.062 kg/ha,4.5
